Reference: publication PMC6384738, “Structure-Function Studies of Polymyxin B Lipononapeptides” (Molecules, 2019)
Values after ≈ are worked out from the molar mass of the structure shown. Where a SMILES comes first, the peptide text is derived from it. Bridges are numbered along the chain shown (N, C = ends). [ ]: non-standard residue; d: D form. The star is where a group is joined. Isonicotinoyl(2-Ph) = O=C(c1ccnc(-c2ccccc2)c1)*; Decanoyl(3R-OH) = CCCCCCC[C@@H](O)CC(=O)*; Cit = NC(=O)NCCC[C@H](N)C(=O)O; dDab = NCC[C@@H](N)C(=O)O; Octanoyl = CCCCCCCC(=O)*; Dab = NCC[C@H](N)C(=O)O

What was measured:
in vitro = conditions: human
Description: (§1) All compounds synthesised in this study were assessed for their minimum inhibitory concentrations (MIC, mg/L) by broth microdilution assay against five antibiotic-sensitive and resistant ATCC reference strains covering the Gram-negative ESKAPE pathogens (Escherichia coli, Klebsiella pneumoniae, A. baumannii, and P. aeruginosa) (Table 1, Table 2 and Table 3). Staphylococcus aureus was also included as a representative Gram-positive bacterial strain. […] Polymyxin B 1, colistin 2, vancomycin and gentamicin were used as positive inhibitor comparator compounds. Compounds were counter-screened against human proximal tubular epithelial cells (HK-2), using LDH release as a general indicator of cellular toxicity.
Cytotoxicity to human kidney proximal tubular epithelial cell line, HK-2 (ATCC CRL-2190, sourced from ATCC; Manassas, VA, USA) was determined using the LDH assay as previously described. In brief, HK-2 cells were seeded as 2000 cells/well in black-walled clear bottom 384-well tissue culture treated plates (Corning, catalogue No. 3712) in DMEM/F12 medium (Gibco® 10565-042) containing 10% of Fetal Bovine Serum (FBS, Gibco® 10099-141) and incubated for 24 h at 37 °C, 5% CO2. Compounds were then added into each well with a concentration series from 300 µM to 2.3 µM in 2-fold dilutions. Colistin and polymyxin B were used as controls and tested at a final concentration range of 1 mM to 7.8 µM. The cells were incubated with the compounds for 24 h at 37 °C, 5% CO2. After the incubation, 5 µL of culture medium was added to 45 µL of LDH assay buffer (Biovision, K313-500) and incubated for 30 min at room temperature. The absorbance (ABS) was then read at 450 nm using a Polar Star Omega plate reader. The data was analysed by Prism 6 software (GraphPad Software, La Jolla, CA, USA). Results were calculated using the following equation: cytotoxicity %= (ABSsamples − ABSuntreated/ABS1%Triton X-100 − ABSuntreated) × 100.

P. aeruginosa ATTC 27853 = assay: microbe, parasite or virus in culture; conditions: ATTC 27853, 18 h
Description: as §1

E. coli ATCC 25922 = assay: microbe, parasite or virus in culture; conditions: ATCC 25922, 18 h
Description: as §1

S. aureus ATCC 25923 = assay: microbe, parasite or virus in culture; conditions: ATCC 25923, 18 h
Description: as §1

K. pneumoniae ATCC 13833 = assay: microbe, parasite or virus in culture; conditions: ATCC 13833, 18 h
Description: as §1

A. baumannii ATCC 19606 = assay: microbe, parasite or virus in culture; conditions: ATCC 19606, 18 h
Description: as §1

K. pneumoniae BAA 2146 = assay: microbe, parasite or virus in culture; conditions: BAA 2146, 18 h
Description: as §1

[1] = tested on: K. pneumoniae ATCC 700603; assay: microbe, parasite or virus in culture; conditions: ATCC 700603, 18 h
Description: as §1

[2] = tested on: P. aeruginosa FADDI PA070; assay: microbe, parasite or virus in culture; conditions: FADDI PA070, 18 h
Description: as §1

| MIC P. aeruginosa ATTC 27853 (P. aeruginosa ATTC 27853) | MIC E. coli ATCC 25922 (E. coli ATCC 25922) | MIC S. aureus ATCC 25923 (S. aureus ATCC 25923) | MIC K. pneumoniae ATCC 13833 (K. pneumoniae ATCC 13833) | MIC A. baumannii ATCC 19606 (A. baumannii ATCC 19606) | MIC K. pneumoniae BAA 2146 (K. pneumoniae BAA 2146) | MIC K. pneumoniae ATCC 700603 [1] | SMILES | CC50 at 24 h (in vitro) | MIC P. aeruginosa FADDI PA070 [2] |
| --- | --- | --- | --- | --- | --- | --- | --- | --- | --- |
| 2 µg/mL (≈ 2.08 µM) | >32 µg/mL | >32 µg/mL | >32 µg/mL | >32 µg/mL | >32 µg/mL | >32 µg/mL | CC(C)C[C@@H]1NC(=O)[C@@H](Cc2ccccc2)NC(=O)[C@H](CCN)NC(=O)[C@@H](NC(=O)[C@H](CCN)NC(=O)[C@@H](N)[C@@H](C)O)CCNC(=O)[C@H]([C@@H](C)O)NC(=O)[C@H](CCN)NC(=O)[C@H](CCN)NC1=O [PMBN, polymyxin B nonapeptide, reference compound] (H-T[Dab][Dab][Dab][dF]L[Dab][Dab]T; lactam 3-C (inferred)) | > 300 µM | – |
| 1 µg/mL (≈ 0.874 µM) | 4 µg/mL (≈ 3.5 µM) | >32 µg/mL | >32 µg/mL | >32 µg/mL | 16 µg/mL (≈ 14 µM) | 16 µg/mL (≈ 14 µM) | CC(C)C[C@@H]1NC(=O)[C@@H](Cc2ccccc2)NC(=O)[C@H](CCN)NC(=O)[C@@H](NC(=O)[C@H](CCN)NC(=O)[C@@H](NC(=O)c2ccnc(-c3ccccc3)c2)[C@@H](C)O)CCNC(=O)[C@H]([C@@H](C)O)NC(=O)[C@H](CCN)NC(=O)[C@H](CCN)NC1=O [Compound 10] ({Isonicotinoyl(2-Ph)}-T[Dab][Dab][Dab][dF]L[Dab][Dab]T; lactam 3-C) | > 300 µM | – |
| 4 µg/mL (≈ 3.67 µM) | 1 µg/mL (≈ 0.917 µM) | >32 µg/mL | >32 µg/mL | 32 µg/mL (≈ 29.3 µM) | 4 µg/mL (≈ 3.67 µM) | 4 µg/mL (≈ 3.67 µM) | CCCCCCC[C@@H](O)CC(=O)N[C@H](C(=O)NCC(=O)N[C@H]1CCNC(=O)[C@H]([C@@H](C)O)NC(=O)[C@H](CCN)NC(=O)[C@H](CCN)NC(=O)[C@H](CC(C)C)NC(=O)[C@@H](Cc2ccccc2)NC(=O)[C@H](CCN)NC1=O)[C@@H](C)O [Compound 52] ({Decanoyl(3R-OH)}-TG[Dab][Dab][dF]L[Dab][Dab]T; lactam 3-C) | > 300 µM | – |
| >32 µg/mL | 32 µg/mL (≈ 27.9 µM) | >32 µg/mL | >32 µg/mL | >32 µg/mL | 32 µg/mL (≈ 27.9 µM) | >32 µg/mL | CCCCCCCC(=O)N[C@H](C(=O)N[C@@H](CCCNC(N)=O)C(=O)N[C@H]1CCNC(=O)[C@H]([C@@H](C)O)NC(=O)[C@H](CCN)NC(=O)[C@H](CCN)NC(=O)[C@H](CC(C)C)NC(=O)[C@@H](Cc2ccccc2)NC(=O)[C@H](CCN)NC1=O)[C@@H](C)O [Compound 44] (Octanoyl-T[Cit][Dab][Dab][dF]L[Dab][Dab]T; lactam 3-C) | > 300 µM | – |

| SMILES | MIC P. aeruginosa ATTC 27853 (P. aeruginosa ATTC 27853) | MIC E. coli ATCC 25922 (E. coli ATCC 25922) | MIC S. aureus ATCC 25923 (S. aureus ATCC 25923) | MIC K. pneumoniae ATCC 13833 (K. pneumoniae ATCC 13833) | MIC A. baumannii ATCC 19606 (A. baumannii ATCC 19606) | MIC K. pneumoniae BAA 2146 (K. pneumoniae BAA 2146) | MIC K. pneumoniae ATCC 700603 [1] | CC50 at 24 h (in vitro) | MIC P. aeruginosa FADDI PA070 [2] |
| --- | --- | --- | --- | --- | --- | --- | --- | --- | --- |
| CCCCCCCC(=O)N[C@@H](CCN)C(=O)N[C@H](C(=O)N[C@H](CCN)C(=O)N[C@H]1CCNC(=O)[C@H]([C@@H](C)O)NC(=O)[C@H](CCN)NC(=O)[C@H](CCN)NC(=O)[C@H](CC(C)C)NC(=O)[C@@H](Cc2ccccc2)NC(=O)[C@H](CCN)NC1=O)[C@@H](C)O [Compound 20] (Octanoyl-[Dab]T[dDab][Dab][Dab][dF]L[Dab][Dab]T; lactam 4-C) | 2 µg/mL (≈ 1.68 µM) | – | – | 0.5 µg/mL (≈ 0.42 µM) | – | 4 µg/mL (≈ 3.36 µM) | 1 µg/mL (≈ 0.841 µM) | 183 µM | >32 µg/mL |
| CCCCCCCC(=O)N[C@H](C(=O)NCC(=O)N[C@H]1CCNC(=O)[C@H]([C@@H](C)O)NC(=O)[C@H](CCN)NC(=O)[C@H](CCN)NC(=O)[C@H](CC(C)C)NC(=O)[C@@H](Cc2ccccc2)NC(=O)[C@H](CCN)NC1=O)[C@@H](C)O [Compound 49] (Octanoyl-TG[Dab][Dab][dF]L[Dab][Dab]T; lactam 3-C) | >32 µg/mL | 4 µg/mL (≈ 3.82 µM) | >32 µg/mL | >32 µg/mL | >32 µg/mL | >32 µg/mL | >32 µg/mL | 163 µM | – |
